This passage reports MIC results from article PMC8779952, “The First Dimeric Derivatives of the Glycopeptide Antibiotic Teicoplanin” (Pharmaceuticals, 2022).

Type in all cases: cell-based
For experiment [1], the system named is Bacillus subtilis ATCC 6633. Here is the method:
(§1) The antibacterial evaluations were carried out as described in our previous publication. TLC was performed on Kieselgel 60 F254 (Merck) with detection either by immersion in ammonium molybdate–sulfuric acid solution followed by heating or by using Pauly’s reagent for detection. Flash column chromatography was performed using Silica gel 60 (Merck 0.040–0.063 mm).

Experiment [2] deals with Enterococcus faecalis 15376 VanA. The note with it: Enterococcus faecalis 15376 VanA (vanA gene positive, teicoplanin-resistant). The procedure:
as §1

Experiment [3] concerns Enterococcus faecalis ATCC 29212. Here is the method: as §1
The test system of experiment [4] is Enterococcus faecalis ATCC 51299 VanB. Here is the method:
as §1

In experiment [5] the test system is Staphylococcus aureus MRSA ATCC 33591. Here is the method:
as §1

Experiment [6] relates to Staphylococcus aureus MSSA ATCC 29213. Here is the method:
as §1

For experiment [7], the system named is Staphylococcus epidermidis ATCC 35984 biofilm. Here is the method:
as §1

For experiment [8], the system named is Staphylococcus epidermidis mecA. Here is the method:
as §1

The mark [9] stands for this setting: Enterococcus faecalis ATCC 51299 VanB (vanB gene positive).

Values after ≈ are worked out from the molar mass of the structure shown. Read-outs that look alike come from different tables or passages of the source.

With `CC(=O)N[C@H]1[C@H](O[C@@H]2c3ccc(c(Cl)c3)Oc3cc4cc(c3O)Oc3ccc(cc3Cl)C[C@H]3NC(=O)[C@H](N)c5ccc(O)c(c5)Oc5cc(O)cc(c5)[C@H](NC3=O)C(=O)N[C@H]4C(=O)N[C@H]3C(=O)N[C@@H]2C(=O)N[C@H](C(=O)O)c2cc(O)cc(O[C@H]4O[C@H](CO)[C@@H](O)[C@H](O)[C@@H]4O)c2-c2cc3ccc2O)O[C@H](CO)[C@@H](O)[C@@H]1O` [Compound 2], the MIC in experiment [1] (ATCC 6633) turned out to be 2 µg/mL (≈ 1.28 µM); in experiment [2] it was 4 µg/mL (≈ 2.56 µM); in experiment [3] (ATCC 29212), 8 µg/mL (≈ 5.11 µM); in experiment [4] (setting [9]), 8 µg/mL (≈ 5.11 µM); in experiment [5] (ATCC 33591), 2 µg/mL (≈ 1.28 µM); in experiment [6] (ATCC 29213) it was 4 µg/mL (≈ 2.56 µM). The MIC stood at 2 µg/mL (≈ 1.28 µM) in experiment [7] (ATCC 35984) and 4 µg/mL (≈ 2.56 µM) in experiment [8] (mecA).
Regarding `CC(=O)N[C@H]1[C@H](O[C@@H]2c3ccc(c(Cl)c3)Oc3cc4cc(c3O)Oc3ccc(cc3Cl)C[C@H]3NC(=O)[C@H](N)c5ccc(O)c(c5)Oc5cc(O)cc(c5)[C@H](NC3=O)C(=O)N[C@H]4C(=O)N[C@H]3C(=O)N[C@@H]2C(=O)N[C@H](C(=O)O)c2cc(O)cc(O)c2-c2cc3ccc2O)O[C@H](CO)[C@@H](O)[C@@H]1O` [Compound 3, teicoplanin pseudoaglycone], the MIC was determined as 2 µg/mL (≈ 1.43 µM) in experiment [1] (ATCC 6633); 256 µg/mL (≈ 183 µM) in experiment [2]; 4 µg/mL (≈ 2.85 µM) in experiment [3] (ATCC 29212); 2 µg/mL (≈ 1.43 µM) in experiment [4] (ATCC 51299); 1 µg/mL (≈ 0.713 µM) in experiment [5] (ATCC 33591); 2 µg/mL (≈ 1.43 µM) in experiment [6] (ATCC 29213). Besides, the MIC in experiment [7] (ATCC 35984) came out at 2 µg/mL (≈ 1.43 µM); in experiment [8] (mecA) it was 1 µg/mL (≈ 0.713 µM).
On to Teicoplanin [Teico (1)], for which the MIC in experiment [1] (Bacillus subtilis ATCC 6633, minimum inhibitory concentration) came to 0.5 µg/mL; in experiment [2] it was 256 µg/mL; in experiment [3] (Enterococcus faecalis ATCC 29212), 2 µg/mL; in experiment [4] (setting [9]) it was 4 µg/mL; in experiment [5] (Staphylococcus aureus MRSA ATCC 33591 (methicillin-resistant)), 0.5 µg/mL; in experiment [6] (Staphylococcus aureus MSSA ATCC 29213 (methicillin-sensitive)), 0.5 µg/mL. Further, the MIC stood at 2 µg/mL in experiment [7] (Staphylococcus epidermidis ATCC 35984 biofilm) and 16 µg/mL in experiment [8] (Staphylococcus epidermidis mecA (mecA gene expression)).
